Measured values reported in publication PMC7356157, “Shorter Antibacterial Peptide Having High Selectivity for E. coli Membranes and Low Potential for Inducing Resistance” (Microorganisms, 2020).
Converted amounts (≈) assume the structure as drawn. Where two headings read alike, the source gives them in different places. No end group written: not given here.

Tests used:
[1] = tested on: E. coli N°44 (clinical isolate); details: broth microdilution; for MIC E. coli N°44: clinical isolate from blood, ESBL (+)
Procedure: (§1) The standard broth microdilution method was used for determining the peptides’ MIC [41]. […] Bacteria in Müller–Hinton broth (MHB) were used as negative control. […] The MIC was determined as the lowest peptide concentration at which bacterial growth was not detected.
(§2) Approximately 50 bacterial samples were then collected from E. coli-infected patients for evaluating activity of the peptides against some clinical isolates. These samples were identified and biochemically and metabolically characterised using the VITEK-2 equipment. Isolates were profiled regarding their resistance or susceptibility to a panel of conventionally used antibiotics.

[2] = tested on: E. coli N°40 (clinical isolate); details: broth microdilution; for MIC E. coli N°40: clinical isolate from blood
Procedure: as §1, §2

[3] = tested on: E. coli N°4 (clinical isolate); details: broth microdilution; for MIC E. coli N°4: clinical isolate from urine
Procedure: as §1, §2

[4] = tested on: E. coli clinical isolate 4; assay: Resistance profile of clinical isolate (VITEK-2); format: cell-based; details: Escherichia coli, isolate from urine
Text: as §2

[5] = tested on: E. coli clinical isolate 44; assay: Resistance profile of clinical isolate (VITEK-2); format: cell-based; details: Escherichia coli, isolate from blood
Text: as §2

[6] = tested on: E. coli clinical isolate 40; assay: Resistance profile of clinical isolate (VITEK-2); format: cell-based; details: Escherichia coli, isolate from blood
Text: as §2

E. coli [7] = assay: microbe, parasite or virus in culture; details: Escherichia coli, read-out: Individual gentamicin MIC
Procedure: (§6) The checkerboard method was used for evaluating peptide antibacterial activity in combination with antibiotics [43]. […] Absorbance was measured at 620 nm and individual peptide and antibiotic MIC and combined MIC were obtained. […] The fractional inhibitory concentration index (FICI) was then calculated as the sum of peptide FIC + antibiotic FIC. A ≤ 0.5 FICI indicated synergy, 0.5 to ≤4 FICI indifference, and >4 FICI antagonism [45].
(§7) The results were interpreted by taking the lowest checkerboard FIC index (previously reported method 3) [44].

E. coli ATCC 25922 [8] = assay: Potential for inducing bacterial resistance (serial subculture at 0.5 MIC); format: cell-based; details: repeated treatment with 0.5× MIC, 18 days, two independent assays in duplicate
Procedure: The MIC against this subculture was then determined by micro-dilution in broth. […] Two independent assays were carried out in duplicate. MIC changes were plotted for each subculture (day of assay).

P. aeruginosa 27853 [9] = assay: MIC by broth microdilution; format: cell-based; details: MHB, 18 h, 37 °C
E. coli [10] = tested on: E. coli
Procedure: as §6, §7

[11] = tested on: human red blood cells (hRBC); assay: Haemolytic activity (MHC); format: cell-based; details: for MHC (minimum haemolytic concentration): 5% v/v hRBC in 1X PBS, 200–0.39 µM, 1 h, 37 °C, absorbance 560 nm
Procedure: A haemolytic activity assay was used for determining whether peptides acted on hRBC membrane by calculating the minimum haemolytic concentration (MHC). Briefly, 100 µL serial dilutions of peptides were incubated in a 96-well plate with an equal volume of a fresh hRBC suspension at 5% v/v in 1X PBS (200–0.39 µM final peptide concentrations). The samples were spun at 1000× g for 5 min after having been incubated at 37 °C for 1 h and a Multiskan spectrometer (Thermo Fisher) was used for measuring 100 µL supernatant absorbance at 560 nm. Treated hRBC absorbance 0.1% Triton X-100 or 100% haemolysis was used as positive control.

E. coli 25922 = assay: Antibacterial activity in the presence of human sera; format: cell-based; details: for MIC against E. coli 25922, Serum (without Pre-Incubation): peptide diluted in fresh human sera (100%), then inoculum in MHB ~5 × 10^5 CFU/mL, 18 h, 37 °C
Procedure: The second assay involved peptide dilution in fresh human sera (100%) pre-incubated for 6 h at 37 °C in a humid chamber before putting them in contact with the bacterial inoculum diluted in MHB (~5 × 10^5 CFU/mL). The assay was incubated and read as mentioned in the microdilution section.

[12] = tested on: E. coli 35218 (ampicillin-resistant ATCC 35218 strain); format: cell-based; details: broth microdilution
E. coli ATCC 25922 [13] = format: cell-based; details: for MIC E. coli 25922: broth microdilution, MHB, ~5 × 10^5 CFU/mL, 18 h, 37 °C, OD 620 nm, 100 to 0.2 µM; for MIC against E. coli 25922, MHB: no serum
E. coli [14] = tested on: E. coli; remark: listed apart in the source
Procedure: as §6, §7

E. coli ATCC 11775 [15] = format: cell-based; details: broth microdilution
E. coli ML35 43827 [16] = assay: Bactericidal activity (MBC); format: cell-based
Procedure: (§3) Bactericidal activity was evaluated by sowing an aliquot of Luria Bertani agar (LBA) in the wells where no growth had been detected in the MIC assay.

E. coli ATCC 25922 [17] = assay: Bactericidal activity (MBC); format: cell-based; details: aliquots of no-growth MIC wells on LBA, 18 h, 37 °C; kills 99.9%
Procedure: as §3

E. coli ATCC 11775 [18] = assay: Bactericidal activity (MBC); format: cell-based
Procedure: as §3

[19] = tested on: E. coli N°44 (clinical isolate); format: cell-based
Procedure: as §3
(§4) Approximately 50 bacterial samples were then collected from E. coli-infected patients for evaluating activity of the peptides against some clinical isolates. These samples were identified and biochemically and metabolically characterised using the VITEK-2 equipment. Isolates were profiled regarding their resistance or susceptibility to a panel of conventionally used antibiotics. Three E. coli isolates having different resistance profiles were then selected following such characterisation (Appendix A): • Isolate 4 (from urine): extended spectrum beta-lactamase (ESBL) (-), resistant to ampicillin, quinolones and co-trimoxazole. • Isolate 40 (from blood): ESBL (-), resistant to ampicillin, 1st-generation cephalosporins and co-trimoxazole. • Isolate 44 (from blood): ESBL (+), resistant to aminoglycosides, quinolones, β-lactams (including 1st-, 3rd- and 4th-generation cephalosporins).

[20] = tested on: E. coli N°40 (clinical isolate); format: cell-based
Procedure: as §3, §4

E. coli ML35 43827 [21] = format: cell-based; details: broth microdilution
E. coli 35218 = format: cell-based
Procedure: as §3

E. coli ML35 = assay: Permeabilising internal membrane (ONPG); format: cell-based; details: 1× MIC
P. aeruginosa 27853 [22] = assay: Bactericidal activity (MBC); format: cell-based; details: LBA, 18 h, 37 °C
Procedure: as §3

[23] = tested on: E. coli (ATCC strains and clinical isolates); assay: MIC summarised over several E. coli strains; format: cell-based
Procedure: The standard broth microdilution method was used for determining the peptides’ MIC [41]. Briefly, serial peptide dilutions (100 to 0.2 µM concentration) were incubated in 96-well plates at 100 μL/well final volume for 18 h at 37 °C in a damp chamber with ~5 × 10^5 CFU/mL bacterial inoculum (calculated from the calibration curve equation previously obtained for each strain (Figure S1)). Optical density (OD) was measured at 620 nm after 18 h on a microplate reader. Bacteria in Müller–Hinton broth (MHB) were used as negative control. […] The MIC was determined as the lowest peptide concentration at which bacterial growth was not detected.

HeLa human cell line = details: cited from earlier work
Text: (§5) Its therapeutic index (TI) calculated for E. coli ML35 is 0.045, indicating low selectivity [[ ...

[24] = tested on: human red blood cells (hRBC); details: cited from earlier work
Text: as §5

HepG2 human cell line = details: cited from earlier work
Text: as §5

Row | Molecule | fold increase in MIC over initial MIC (E. coli ATCC 25922 [8]) | MIC P. aeruginosa 27853 (P. aeruginosa 27853 [9]) | MIC E. coli N°44 [1] | MIC E. coli N°40 [2] | MIC E. coli N°4 [3] | MHC (minimum haemolytic concentration) [11] | MIC against E. coli 25922, Serum (without Pre-Incubation) (E. coli 25922) | MIC E. coli 35218 [12] | MIC E. coli 25922 (E. coli ATCC 25922 [13]) | MIC against E. coli 25922, MHB (E. coli ATCC 25922 [13]) | MIC E. coli 11775 (E. coli ATCC 11775 [15]) | MBC E. coli ML35 43827 (E. coli ML35 43827 [16]) | MBC E. coli 25922 (E. coli ATCC 25922 [17]) | MBC E. coli N°44 [19] | MIC E. coli ML35 43827 (E. coli ML35 43827 [21]) | MBC E. coli 35218 (E. coli 35218) | other results
1 | CNC(C)C1CCC(N)C(OC2C(N)CC(N)C(OC3OCC(C)(O)C(NC)C3O)C2O)O1 (stereo not drawn) [Gentamicin, gentamicin] |  |  |  |  |  |  |  |  |  |  |  |  |  |  |  |  | MIC E. coli N°44 (antibiotics) ([1]; clinical isolate): >16 µg/mL; MIC E. coli N°40 (antibiotics) ([2]; clinical isolate): 1 µg/mL (≈ 2.09 µM); MIC E. coli N°4 (antibiotics) ([3]; clinical isolate): 2 µg/mL (≈ 4.19 µM); MIC [4]: ≤ 1 µg/mL; MIC [5]: ≥ 16 µg/mL; MIC [6]: ≤ 1 µg/mL; MIC (E. coli [7]): 0.5 µg/mL (≈ 1.05 µM)
2 | CN(C)[C@@H]1C(O)=C(C(N)=O)C(=O)[C@@]2(O)C(O)=C3C(=O)c4c(O)cccc4[C@@](C)(O)[C@H]3C[C@@H]12 [Tetracycline, tetracycline, reference compound] | 128 fold |  |  |  |  |  |  |  |  |  |  |  |  |  |  |  | 
3 | KKMKKALQYIKLLK-NH2 [Peptide 35409-13] |  | >100 µM | 25 µM | 50 µM | >100 µM | >200 µM | 50 µM | 25 µM | 50 µM | 50 µM | 100 µM | 50 µM | 50 µM | 50 µM | 25 µM | 100 µM | FIC Index (E. coli [10]; peptide + gentamicin, lowest checkerboard FIC index (method 3)): 0.75; FIC P (peptide) (E. coli [10]; with gentamicin): 0.25; FIC Index (E. coli [14]; peptide + ciprofloxacin, lowest checkerboard FIC index (method 3)): 3; FIC P (peptide) (E. coli [14]; with ciprofloxacin): 1; MBC E. coli 11775 (E. coli ATCC 11775 [18]): > 100 µM; MBC E. coli N°40 [20]: 100 µM
4 | RKKKMKKALQYIKLLKE-NH2 [Peptide 35409-1] | eight-fold | 100 µM | 12.5 µM | 25 µM | >100 µM | >200 µM | 12.5 µM | 6 µM | 25 µM | 25 µM | >100 µM | 3 µM | 25 µM | 100 µM | 3 µM | 6 µM | Interpretation (E. coli [10]; peptide + gentamicin): Indifference; x MIC Combination, Peptide (E. coli [10]; with gentamicin, fraction of individual peptide MIC (individual = 1)): 1/0.25 x MIC; haemolysis relative to average MIC ([11]; concentration as multiple of average MIC 14.3 µM): did not induce haemolysis at 14-fold higher concentrations; MIC against E. coli 25922, Serum (6 h Pre-Incubation) (E. coli 25922; peptide in fresh human sera (100%) pre-incubated 6 h at 37 °C before inoculum, stability read-out): 50 µM; time at which maximum permeabilisation was reached (E. coli ML35; 1X PBS, 1.5 mM ONPG, 37 °C, 405 nm every 30 min for 4.5 h, triplicate): 1.5 h; permeabilisation of E. coli internal membrane (E. coli ML35; ONPG, 405 nm, 4.5 h): did act on E. coli internal membrane; Interpretation (E. coli [14]; peptide + ciprofloxacin): Indifference; x MIC Combination, Peptide (E. coli [14]; with ciprofloxacin, fraction of individual peptide MIC (individual = 1)): 1/1 x MIC; MBC P. aeruginosa 27853 (P. aeruginosa 27853 [22]): 100 µM; average MIC against E. coli [23]: 14.3 µM
5 | RYRRKKKMKKALQYIKLLKE-NH2 [Peptide 35409, reference compound] |  | >100 µM |  |  |  | 1.56 µM | 25 µM | 6 µM | 25 µM | 25 µM | >100 µM | 25 µM | 50 µM |  | 25 µM | 6 µM | cytotoxic activity against HeLa (HeLa human cell line): did not have cytotoxic activity; MHC against human red blood cells [24]: 1.5 µM; cytotoxic activity against HepG2 (HepG2 human cell line): did not have cytotoxic activity
